Experiments:
[1] = tested on: naïve CD4+ T cells co-cultured with TSLP-activated mDCs; assay: TSLP-activated mDC-induced CD4+ T cell responses (co-culture with naive CD4+ T cells, cytokine staining / supernatant); assay type: cell-based, human; settings: 20 ug/ml, naïve CD4+ T cells 7 days, PMA/ionomycin 6 h, intracellular staining
Protocol: (FIG. 10A) Intracellular cytokine levels were analyzed by intracellular staining in cells stimulated with PMA/Ionomycin for 6 hours and with brefeldinA for 4 hrs. (FIG. 10B) Cell supernatant cytokine levels were measured by stimulating the cells with αCD3/CD28 beads for 48 hrs.
It was next tested whether anti-Dectin-1-Pam3 conjugate can indeed suppress TSLP-activated mDC-induced Th2 type T cell responses. 5×10^3 mDCs were cultured overnight with TSLP in the presence or absence of the same concentration (20 ug/ml) of anti-Dectin-1-Pam3 conjugate, combination of anti-Dectin-1 and Pam3, or Pam 3. 2×10^5 purified naïve CD4+ T cells were then added into the culture. After 7 days, T cells were stimulated for 6 h with PMA/ionomycin in the presence of brefeldin A. Cells were then stained for intracellular expression of IL-13 (Th2 type cytokine) and IFNγ (Th2 type cytokine).
Next, the Th2-type T cells were tested. mDCs were first primed with 40 ng/mL TSLP and either αdectin-1 or αDectin-1-pam3 at 20 ug/mL After 24 hrs, naïve CD4+ T cells are added to the mDCs and cultured for an additional 6 days. Intracellular cytokine levels were analyzed by intracellular staining in cells stimulated with PMA/Ionomycin for 6 hours and with brefeldinA for 4 hrs (FIG. 10A). Cell supernatant cytokine levels were measured by stimulating the cells with αCD3/CD28 beads for 48 hrs (FIG. 10B).

[2] = tested on: dendritic cells and CD4+ T cells; allergic patient PBMCs; assay: Th2 responses after curdlan activation of DCs / allergic patient PBMCs; assay type: cell-based, human

## CCCCCCCCCCCCCCCC(=O)N[C@@H](CSCC(COC(=O)CCCCCCCCCCCCCCC)OC(=O)CCCCCCCCCCCCCCC)C(=O)N[C@@H](CO)C(=O)N[C@@H](CCCCN)C(=O)N[C@@H](CCCCN)C(=O)N[C@@H](CCCCN)C(=O)N[C@@H](CCCCN)C(=O)O (mixture of isomers) [Pam3, N-Palmitoyl-S-[2,3-bis(palmitoyloxy)-(2RS)-propyl]-[R]-cysteinyl-[S]-seryl-[S]-lysyl-[S]-lysyl-[S]-lysyl-[S]-lysine]
[1]
  IL-13+CD4+ T cell responses: 3.47%

## curdlan
[2]; Flu HA1 antigen, DCs and CD4+ T cells, restimulation with HA-1-derived peptides
  Antigen-specific TH2 responses: decreased antigen-specific TH2 responses
[2]; allergic patient PBMCs
  Th2-type T cell responses: significantly down-regulated Th2-type T cell responses
[2]; restimulation with PMA/Ionomycin, immunostaining
  Percentage of IL-13+ cells: decreased significantly
[2]; restimulation with PMA/Ionomycin, immunostaining for IL-13 and IL-5
  Total TH2 responses: downregulates total TH2 responses
